From publication PMC6099768, “Application of Docking Analysis in the Prediction and Biological Evaluation of the Lipoxygenase Inhibitory Action of Thiazolyl Derivatives of Mycophenolic Acid” (Molecules : A Journal of Synthetic Chemistry and Natural …, 2018)
pIC50: −log10 of the molar value. Like-named read-outs stand apart in the source and are kept apart here.

Target: T1, soybean LOX type 1b (sLOX-1) (Glycine max, UniProt P08170)
T1 sequence (P08170 1-839): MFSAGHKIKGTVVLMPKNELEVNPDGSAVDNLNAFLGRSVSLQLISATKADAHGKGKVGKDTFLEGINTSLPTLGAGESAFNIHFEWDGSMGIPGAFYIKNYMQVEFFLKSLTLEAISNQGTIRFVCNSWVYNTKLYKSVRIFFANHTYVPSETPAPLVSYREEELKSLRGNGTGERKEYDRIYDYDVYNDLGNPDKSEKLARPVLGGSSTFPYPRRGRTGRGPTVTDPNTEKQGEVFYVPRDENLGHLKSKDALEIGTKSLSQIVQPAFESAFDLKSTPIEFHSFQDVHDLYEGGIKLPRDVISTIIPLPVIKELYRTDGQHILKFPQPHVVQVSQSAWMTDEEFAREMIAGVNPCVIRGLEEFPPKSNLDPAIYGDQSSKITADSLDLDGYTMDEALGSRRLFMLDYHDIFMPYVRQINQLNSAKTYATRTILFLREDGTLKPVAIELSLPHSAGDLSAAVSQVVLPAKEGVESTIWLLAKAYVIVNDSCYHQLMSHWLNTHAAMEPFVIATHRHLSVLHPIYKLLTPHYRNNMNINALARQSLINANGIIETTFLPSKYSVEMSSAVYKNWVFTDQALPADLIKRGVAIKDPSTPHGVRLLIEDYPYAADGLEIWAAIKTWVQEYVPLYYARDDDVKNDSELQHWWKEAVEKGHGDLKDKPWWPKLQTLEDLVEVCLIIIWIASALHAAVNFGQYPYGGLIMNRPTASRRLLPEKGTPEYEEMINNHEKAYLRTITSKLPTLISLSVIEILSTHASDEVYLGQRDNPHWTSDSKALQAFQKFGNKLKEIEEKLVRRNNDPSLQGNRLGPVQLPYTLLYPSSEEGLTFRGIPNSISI
Test: Soybean lipoxygenase inhibition study in vitro
Assay type: biochemical
Conditions: for pIC50: read-out: IC50; for IC50: printed as negative values (−log of IC50 in µM), read-out: pIC50 (converted)
Procedure: For the evaluation of lipoxygenase inhibition soybean LOX type 1b was used as reported previously. The selection was based on the structural and functional similarity of sLOX-1 with mammalian LOX [36, 50, 51, 52] which makes it the most commonly used LOX enzyme in drug screening, followed by sLOX-3 [40].
The assay conditions were as previously reported. Different compound concentrations were used for the calculation of IC50 values. The experiments were performed in triplicate.

[1] = Table 6, unit inferred, same values as Table 5
[2] = soybean LOX type 1b, means of three determinations, deviation <10% of the mean

| Structure (SMILES) | pIC50 [1] | IC50 [µM] | pIC50 [2] |
| --- | --- | --- | --- |
| COc1c(C)c2c(c(O)c1C/C=C(\C)CCC(=O)Nc1ncc(C)s1)C(=O)OC2 [Compound 2, (E)-6-(4-Hydroxy-6-methoxy-7-methyl-3-oxo-1,3-dihydroisobenzofuran-5-yl)-4-methyl-N-(5-methylthiazol-2-yl)hex-4-enamide] | 4.65 | 22.5 | 4.65 |
| CCOC(=O)c1sc(NC(=O)CC/C(C)=C/Cc2c(O)c3c(c(C)c2OC)COC3=O)nc1C [Compound 5, (E)-Ethyl-2-(6-(4-hydroxy-6-methoxy-7-methyl-3-oxo-1,3-dihydroisobenzofuran-5-yl)-4-methylhex-4-enamido)-4-methylthiazole-5-carboxylate] | 4.65 |  | 4.65 |
| COc1c(C)c2c(c(O)c1C/C=C(\C)CCC(=O)Nc1nc(-c3cccnc3)cs1)C(=O)OC2 [Compound 8] | 4.05 | 89.9 | 4.05 |
| COc1c(C)c2c(c(O)c1C/C=C(\C)CCC(=O)Nc1nccs1)C(=O)OC2 [Compound 1, (E)-6-(4-Hydroxy-6-methoxy-7-methyl-3-oxo-1,3-dihydroisobenzofuran-5-yl)-4-methyl-N-(thiazol-2-yl)hex-4-enamide] |  | 26.2 | 4.58 |
| COc1c(C)c2c(c(O)c1C/C=C(\C)CCC(=O)Nc1nc3ccccc3s1)C(=O)OC2 [Compound 10, (E)-N-(Benzo[d]thiazol-2-yl)-6-(4-hydroxy-6-methoxy-7-methyl-3-oxo-1,3-dihydroisobenzofuran-5-yl)-4-methylhex-4-enamide] |  | 89.9 | 4.05 |
| COc1c(C)c2c(c(OC)c1C/C=C(\C)CCC(=O)Nc1nccs1)C(=O)OC2 [Compound 15, (E)-6-(4,6-Dimethoxy-7-methyl-3-oxo-1,3-dihydroisobenzofuran-5-yl)-4-methyl-N-(thiazol-2-yl)hex-4-enamide] |  |  | 4.02 |
| COc1ccc2nc(NC(=O)CC/C(C)=C/Cc3c(O)c4c(c(C)c3OC)COC4=O)sc2c1 [Compound 11, (E)-6-(4-Hydroxy-6-methoxy-7-methyl-3-oxo-1,3-dihydroisobenzofuran-5-yl)-N-(6-methoxybenzo[d]thiazol-2-yl)-4-methylhex-4-enamide] | 3.81 | 156 | 3.81 |
| CCOC(=O)Cc1csc(NC(=O)CC/C(C)=C/Cc2c(O)c3c(c(C)c2OC)COC3=O)n1 [Compound 6, (E)-Ethyl-2-(2-(6-(4-hydroxy-6-methoxy-7-methyl-3-oxo-1,3-dihydroisobenzofuran-5-yl)-4-methylhex-4-enamido)thiazol-4-yl)acetate] |  | 30 | 4.52 |
| COc1c(C)c2c(c(OC)c1C/C=C(\C)CCC(=O)Nc1ncc(C)s1)C(=O)OC2 [Compound 16, (E)-6-(4,6-Dimethoxy-7-methyl-3-oxo-1,3-dihydroisobenzofuran-5-yl)-4-methyl-N-(5-methylthiazol-2-yl)hex-4-enamide] |  |  | 4.05 |
| COc1c(C)c2c(c(O)c1C/C=C(\C)CCC(=O)Nc1nc3c(s1)CCC3)C(=O)OC2 [Compound 14, (E)-N-(5,6-Dihydro-4H-cyclopenta[d]thiazol-2-yl)-6-(4-hydroxy-6-methoxy-7-methyl-3-oxo-1,3-dihydroisobenzofuran-5-yl)-4-methylhex-4-enamide] |  |  | 4.51 |
| COc1c(C)c2c(c(O)c1C/C=C(\C)CCC(=O)Nc1nc3c(s1)CCCC3)C(=O)OC2 [Compound 12, (E)-6-(4-Hydroxy-6-methoxy-7-methyl-3-oxo-1,3-dihydroisobenzofuran-5-yl)-4-methyl-N-(4,5,6,7-tetrahydrobenzo[d]thiazol-2-yl)hex-4-enamide] |  |  | 4.21 |
| COc1c(C)c2c(c(O)c1C/C=C(\C)CCC(=O)Nc1nc(-c3ccncc3)cs1)C(=O)OC2 [Compound 7, (E)-6-(4-Hydroxy-6-methoxy-7-methyl-3-oxo-1,3-dihydroisobenzofuran-5-yl)-4-methyl-N-(4-(pyridin-4-yl)thiazol-2-yl)hex-4-enamide] |  | 78.7 | 4.10 |
| COc1c(C)c2c(c(O)c1C/C=C(\C)CCC(=O)Nc1nc(-c3ccccn3)cs1)C(=O)OC2 [Compound 9, (E)-6-(4-Hydroxy-6-methoxy-7-methyl-3-oxo-1,3-dihydroisobenzofuran-5-yl)-4-methyl-N-(4-(pyridin-2-yl)thiazol-2-yl)hex-4-enamide] | 5.60 | 2.5 | 5.60 |
| COc1c(C)c2c(c(O)c1C/C=C(\C)CCC(=O)Nc1nc3c(s1)CCCCC3)C(=O)OC2 [Compound 13, (E)-6-(4-Hydroxy-6-methoxy-7-methyl-3-oxo-1,3-dihydroisobenzofuran-5-yl)-4-methyl-N-(5,6,7,8-tetrahydro-4H-cyclohepta[d]thiazol-2-yl)hex-4-enamide] |  |  | 4.60 |
| COc1c(C)c2c(c(O)c1C/C=C(\C)CCC(=O)Nc1nc(C)cs1)C(=O)OC2 [Compound 4, (E)-6-(4-Hydroxy-6-methoxy-7-methyl-3-oxo-1,3-dihydroisobenzofuran-5-yl)-4-methyl-N-(4-methylthiazol-2-yl)hex-4-enamide] | 4.51 | 31.3 | 4.51 |
| COc1c(C)c2c(c(O)c1C/C=C(\C)CCC(=O)Nc1nc(C)c(C)s1)C(=O)OC2 [Compound 3, (E)-N-(4,5-Dimethylthiazol-2-yl)-6-(4-hydroxy-6-methoxy-7-methyl-3-oxo-1,3-dihydroisobenzofuran-5-yl)-4-methylhex-4-enamide] |  | 43.8 | 4.36 |
